Test results from article PMC7447754 (Nature Communications, 2020).
≈ marks a conversion by molar mass, not a printed value. Where a SMILES comes first, the peptide text is derived from it.

How the values were obtained:
[1] = tested on: SARS-CoV-2; conditions: 24 h, pH 7.4
[2] = tested on: parainfluenza virus 3; conditions: 24 h, pH 7.4
[3] = tested on: endosomal acidification in MDCK cells; format: cell-based, canine
[4] = tested on: SARS-CoV-2; format: binding
[5] = tested on: rhinovirus; format: binding
[6] = tested on: virus–host endosomal acidification in H1N1-infected MDCK cells; format: cell-based, canine
[7] = tested on: SARS-CoV-2
[8] = tested on: MERS-CoV
[9] = tested on: SARS-CoV
[10] = tested on: A(H7N9) virus
[11] = tested on: rhinovirus
[12] = target: H1N1 HA1 protein (Influenza A virus, UniProt C3W5S1)
H1N1 HA1 protein, sequence (C3W5S1 18-344 limits assumed): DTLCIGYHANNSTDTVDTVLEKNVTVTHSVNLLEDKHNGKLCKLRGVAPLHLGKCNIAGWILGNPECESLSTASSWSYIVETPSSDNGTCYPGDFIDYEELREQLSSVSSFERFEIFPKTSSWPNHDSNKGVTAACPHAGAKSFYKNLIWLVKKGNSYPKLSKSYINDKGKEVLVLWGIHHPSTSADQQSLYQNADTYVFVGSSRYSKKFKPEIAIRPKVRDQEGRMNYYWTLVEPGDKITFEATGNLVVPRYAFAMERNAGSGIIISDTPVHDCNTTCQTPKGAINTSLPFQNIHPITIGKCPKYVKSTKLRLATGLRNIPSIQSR

[13] = target: MERS-CoV S protein (Middle East respiratory syndrome-related coronavirus, UniProt K9N5Q8)
MERS-CoV S protein, sequence (K9N5Q8 18-1353 limits assumed): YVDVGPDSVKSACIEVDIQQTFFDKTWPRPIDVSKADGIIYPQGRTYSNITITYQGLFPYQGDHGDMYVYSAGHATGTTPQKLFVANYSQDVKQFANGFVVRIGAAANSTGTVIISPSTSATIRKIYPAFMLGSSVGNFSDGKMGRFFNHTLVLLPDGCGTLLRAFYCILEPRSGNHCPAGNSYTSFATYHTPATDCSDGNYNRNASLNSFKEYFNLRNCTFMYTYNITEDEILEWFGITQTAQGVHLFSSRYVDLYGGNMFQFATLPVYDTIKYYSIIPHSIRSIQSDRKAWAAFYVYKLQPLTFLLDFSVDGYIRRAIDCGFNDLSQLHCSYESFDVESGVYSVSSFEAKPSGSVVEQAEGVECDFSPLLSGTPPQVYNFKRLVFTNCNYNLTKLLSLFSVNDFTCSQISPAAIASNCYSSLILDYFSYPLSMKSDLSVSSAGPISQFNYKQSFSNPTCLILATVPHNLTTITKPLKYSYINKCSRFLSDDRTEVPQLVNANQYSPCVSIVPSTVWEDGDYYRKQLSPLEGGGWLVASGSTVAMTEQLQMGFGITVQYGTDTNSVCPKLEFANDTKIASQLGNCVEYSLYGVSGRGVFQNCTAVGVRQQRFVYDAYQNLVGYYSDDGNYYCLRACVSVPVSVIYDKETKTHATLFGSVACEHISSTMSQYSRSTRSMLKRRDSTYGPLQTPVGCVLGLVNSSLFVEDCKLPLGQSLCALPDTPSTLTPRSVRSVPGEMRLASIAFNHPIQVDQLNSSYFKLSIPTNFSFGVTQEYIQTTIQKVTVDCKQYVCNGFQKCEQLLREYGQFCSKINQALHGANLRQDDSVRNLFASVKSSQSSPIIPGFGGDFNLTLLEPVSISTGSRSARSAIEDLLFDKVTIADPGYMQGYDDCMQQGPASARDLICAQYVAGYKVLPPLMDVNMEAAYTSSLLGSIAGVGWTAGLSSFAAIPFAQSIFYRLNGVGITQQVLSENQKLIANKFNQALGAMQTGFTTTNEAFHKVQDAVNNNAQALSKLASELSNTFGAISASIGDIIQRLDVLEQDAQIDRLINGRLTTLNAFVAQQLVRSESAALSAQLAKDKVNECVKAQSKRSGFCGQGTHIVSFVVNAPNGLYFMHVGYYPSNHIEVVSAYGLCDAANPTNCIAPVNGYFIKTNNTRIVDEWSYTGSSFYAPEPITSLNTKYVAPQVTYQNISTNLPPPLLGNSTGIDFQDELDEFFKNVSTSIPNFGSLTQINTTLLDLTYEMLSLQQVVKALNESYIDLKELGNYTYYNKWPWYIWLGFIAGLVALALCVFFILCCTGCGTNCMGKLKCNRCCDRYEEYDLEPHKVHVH

[14] = tested on: H1N1 virus
[15] = tested on: H1N1 virus; remark: listed apart in the source
[16] = tested on: H1N1 virus; remark: listed apart in the source
[17] = tested on: SARS-CoV-2; remark: listed apart in the source
[18] = physchem; conditions: water

SMILES: CC[C@H](C)[C@H](NC(=O)[C@H](C)NC(=O)CNC(=O)[C@@H](N)CC(N)=O)C(=O)N[C@@H](CS)C(=O)N[C@@H](Cc1c[nH]c2ccccc12)C(=O)NCC(=O)N1CCC[C@H]1C(=O)N[C@@H](CS)C(=O)N1CCC[C@H]1C(=O)N[C@H](C(=O)N[C@@H](C)C(=O)N[C@@H](Cc1ccccc1)C(=O)N[C@@H](CCCNC(=N)N)C(=O)N[C@@H](CCC(N)=O)C(=O)N[C@H](C(=O)NCC(=O)N[C@@H](CC(N)=O)C(=O)N[C@@H](CS)C(=O)NCC(=O)N[C@@H](Cc1c[nH]cn1)C(=O)N[C@@H](Cc1ccccc1)C(=O)N[C@@H](CCCCN)C(=O)N[C@H](C(=O)N[C@@H](CCCNC(=N)N)C(=O)N[C@@H](CS)C(=O)N[C@@H](CS)C(=O)N[C@@H](CCCCN)C(=O)N[C@H](C(=O)N[C@@H](CCCNC(=N)N)C(=O)O)[C@@H](C)CC)C(C)C)[C@@H](C)CC)[C@@H](C)O [P9, reference compound] (H-NGAICWGPCPTAFRQIGNCGHFKVRCCKIR-OH)
- IC50 against SARS-CoV-2 [1]: 2.4 µg/mL (≈ 0.719 µM)
- IC50 against parainfluenza virus 3 [2]: > 25.0 µg/mL

SMILES: CC[C@H](C)[C@H](NC(=O)[C@H](C)NC(=O)CNC(=O)[C@@H](N)CC(N)=O)C(=O)N[C@@H](CS)C(=O)N[C@@H](Cc1c[nH]c2ccccc12)C(=O)NCC(=O)N1CCC[C@H]1C(=O)N[C@@H](CS)C(=O)N1CCC[C@H]1C(=O)N[C@H](C(=O)N[C@@H](C)C(=O)N[C@@H](Cc1ccccc1)C(=O)N[C@@H](CCCNC(=N)N)C(=O)N[C@@H](CCC(N)=O)C(=O)N[C@H](C(=O)NCC(=O)N[C@@H](CC(N)=O)C(=O)N[C@@H](CS)C(=O)NCC(=O)N[C@@H](CCCNC(=N)N)C(=O)N[C@@H](Cc1ccccc1)C(=O)N[C@@H](CCCNC(=N)N)C(=O)N[C@H](C(=O)N[C@@H](CCCNC(=N)N)C(=O)N[C@@H](CS)C(=O)N[C@@H](CS)C(=O)N[C@@H](CCCNC(=N)N)C(=O)N[C@H](C(=O)N[C@@H](CCCNC(=N)N)C(=O)O)[C@@H](C)CC)C(C)C)[C@@H](C)CC)[C@@H](C)O [P9R] (H-NGAICWGPCPTAFRQIGNCGRFRVRCCRIR-OH)
- inhibition of endosomal acidification in live cells [3]: could more significantly inhibit endosomal acidification in live cells than that of P9
- binding to SARS-CoV-2 [4]: could efficiently bind
- binding to rhinovirus [5]: could also bind
- inhibition of virus–host endosomal acidification in infected live cells [6]: could efficiently inhibit
- IC50 against SARS-CoV-2 [1]: 0.9 µg/mL (≈ 0.264 µM)
- IC50 against parainfluenza virus 3 [2]: > 25.0 µg/mL
- inhibition of viral replication, SARS-CoV-2 [7]: more than 100 fold
- inhibition of viral replication, MERS-CoV [8]: more than 100 fold
- inhibition of viral replication, SARS-CoV [9]: more than 100 fold
- inhibition of viral replication, A(H7N9) virus [10]: > 20 fold
- inhibition of viral replication, rhinovirus [11]: > 20 fold
- binding to H1N1 HA1 protein [12]: could also bind
- binding to MERS-CoV S protein [13]: could also bind
- antiviral activity when cells were pretreated before viral infection [14]: did not show antiviral activity
- effect on viral attachment [15]: did not affect viral attachment
- viral replication after 10,000-fold dilution of virus-peptide mixture [16]: could significantly inhibit viral replication
- inhibition of viral replication when added after SARS-CoV-2 infection [17]: could also significantly inhibit viral replication
- solubility [18]: > 5000 µg/mL

SMILES: CO/C1=C\C(C)=C\[C@@H](C)[C@@H](O)[C@@H](C)C/C(C)=C/C=C/[C@H](OC)[C@@H]([C@@H](C)[C@@H](O)[C@H](C)[C@@]2(O)C[C@@H](O)[C@H](C)[C@@H](C(C)C)O2)OC1=O [bafilomycin A1, reference compound]
- inhibition of virus–host endosomal acidification in infected live cells [6]: could efficiently inhibit
